Reference: PMC5933782, “Molecular structures of cdc2-like kinases in complex with a new inhibitor chemotype” (PLoS ONE, 2018)
Structures can show the parent of a compound that is named as a salt. Where two headings read alike, the source gives them in different places.

Legend:
CDK1/cyclin B = test: radiometric protein kinase assay; format: biochemical, starfish; conditions: 15 μmol/L ATP
CDK2/cyclin A = target: T1, CDK2/cyclin A (Homo sapiens, UniProt P24941); test: radiometric protein kinase assay; format: biochemical; conditions: 15 μmol/L ATP; read-out: IC50 CDK2/cyclinA
T1 construct: made in house

CDK5/p25 = target: T2, CDK5/p25 (Homo sapiens, UniProt Q00535); test: radiometric protein kinase assay; format: biochemical; conditions: 15 μmol/L ATP
T2 construct: made in house

CK1δ/ε = test: radiometric protein kinase assay; format: biochemical, porcine; conditions: 15 μmol/L ATP; read-out: IC50 CK1
DYRK1A [1] = target: DYRK1A (Homo sapiens, UniProt Q13627); test: radiometric protein kinase assay; format: biochemical; conditions: 15 μmol/L ATP; read-out: IC50 DYRK 1A
GSK-3 = test: radiometric protein kinase assay; format: biochemical, porcine; conditions: 15 μmol/L ATP; read-out: IC50 GSK3
CDK9/cyclin T = CDK9/cyclin T (Homo sapiens, UniProt P50750); test: radiometric protein kinase assay
Experimental: (§1) Buffers. Buffer A: 10 mM MgCl2, 1 mM EGTA, 1 mM DTT, 25 mM Tris-HCl pH 7.5, 50 μg heparin/mL. Buffer C: 60 mM β-glycerophosphate, 15 mM p-nitrophenylphosphate, 25 mM MOPS (pH 7.2), 15 mM EGTA, 15 mM MgCl2, 1 mM DTT, 1 mM sodium vanadate, 1 mM phenylphosphate.
(§2) Kinase activities were assayed in buffer A or C at 30°C at a final ATP concentration of 15 μmol/L. Blank values were subtracted and activities were expressed in percent of the maximal activity, i.e. in the absence of inhibitors. Controls were performed with appropriate dilutions of DMSO.
(§3) Their kinase activity was assayed in buffer A, with 1 mg histone H1/mL, in the presence of 15 μmol/L [γ-33P] ATP (3,000 Ci/mmol; 10 mCi/mL) in a final volume of 30 μL. After 30 min incubation at 30°C, the reaction was stopped by harvesting onto P81 phosphocellulose supernatant (Whatman) using a FilterMate harvester (Packard) and washing in 1% phosphoric acid. Scintillation fluid was added and the radioactivity measured in a Packard counter.
(§4) All data points for construction of dose response curves were recorded in triplicate.

CLK1 [2] = target: CLK1 (Mus musculus, UniProt P22518); test: radiometric protein kinase assay
Experimental: Buffer A: 10 mM MgCl2, 1 mM EGTA, 1 mM DTT, 25 mM Tris-HCl pH 7.5, 50 μg heparin/mL. Buffer C: 60 mM β-glycerophosphate, 15 mM p-nitrophenylphosphate, 25 mM MOPS (pH 7.2), 15 mM EGTA, 15 mM MgCl2, 1 mM DTT, 1 mM sodium vanadate, 1 mM phenylphosphate.
Controls were performed with appropriate dilutions of DMSO. The GS-1, CKS, CDK7/9 tide and RS peptide substrates were obtained from Proteogenix (Oberhausbergen, France).
CDK1/cyclin B (M phase starfish oocytes, native), CDK2/cyclin A and CDK5/p25 (human, recombinant) were prepared as previously described [33]. […] ATP (3,000 Ci/mmol; 10 mCi/mL) in a final volume of 30 μL. After 30 min incubation at 30°C, the reaction was stopped by harvesting onto P81 phosphocellulose supernatant (Whatman) using a FilterMate harvester (Packard) and washing in 1% phosphoric acid. Scintillation fluid was added and the radioactivity measured in a Packard counter.
as §4

DYRK1B = DYRK1B (Homo sapiens, UniProt Q9Y463); test: radiometric protein kinase assay; format: biochemical; conditions: 15 μmol/L ATP; read-out: IC50 DYRK 1B
DYRK2 = target: T3, DYRK2 (Homo sapiens, UniProt Q92630); test: radiometric protein kinase assay; format: biochemical; conditions: 15 μmol/L ATP; read-out: IC50 DYRK 2
T3 sequence (Q92630 1-601): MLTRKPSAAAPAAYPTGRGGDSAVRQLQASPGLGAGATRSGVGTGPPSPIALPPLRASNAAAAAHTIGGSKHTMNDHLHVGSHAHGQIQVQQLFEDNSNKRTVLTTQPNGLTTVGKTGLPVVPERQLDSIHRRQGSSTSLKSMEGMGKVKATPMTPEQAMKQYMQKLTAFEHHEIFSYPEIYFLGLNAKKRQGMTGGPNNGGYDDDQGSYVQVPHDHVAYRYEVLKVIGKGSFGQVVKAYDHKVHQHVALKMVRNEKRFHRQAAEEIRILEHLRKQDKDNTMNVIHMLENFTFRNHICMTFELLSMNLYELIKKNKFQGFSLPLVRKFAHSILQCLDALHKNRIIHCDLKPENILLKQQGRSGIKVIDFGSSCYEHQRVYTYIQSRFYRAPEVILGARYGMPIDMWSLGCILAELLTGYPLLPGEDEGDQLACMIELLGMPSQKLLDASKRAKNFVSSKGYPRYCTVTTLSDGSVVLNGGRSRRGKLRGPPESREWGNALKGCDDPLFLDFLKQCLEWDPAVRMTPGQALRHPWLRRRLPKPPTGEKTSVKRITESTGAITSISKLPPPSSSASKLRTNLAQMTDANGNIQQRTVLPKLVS

DYRK3 = target: T4, DYRK3 (Homo sapiens, UniProt O43781); test: radiometric protein kinase assay; format: biochemical; conditions: 15 μmol/L ATP; read-out: IC50 DYRK 3
T4 sequence (O43781 1-588): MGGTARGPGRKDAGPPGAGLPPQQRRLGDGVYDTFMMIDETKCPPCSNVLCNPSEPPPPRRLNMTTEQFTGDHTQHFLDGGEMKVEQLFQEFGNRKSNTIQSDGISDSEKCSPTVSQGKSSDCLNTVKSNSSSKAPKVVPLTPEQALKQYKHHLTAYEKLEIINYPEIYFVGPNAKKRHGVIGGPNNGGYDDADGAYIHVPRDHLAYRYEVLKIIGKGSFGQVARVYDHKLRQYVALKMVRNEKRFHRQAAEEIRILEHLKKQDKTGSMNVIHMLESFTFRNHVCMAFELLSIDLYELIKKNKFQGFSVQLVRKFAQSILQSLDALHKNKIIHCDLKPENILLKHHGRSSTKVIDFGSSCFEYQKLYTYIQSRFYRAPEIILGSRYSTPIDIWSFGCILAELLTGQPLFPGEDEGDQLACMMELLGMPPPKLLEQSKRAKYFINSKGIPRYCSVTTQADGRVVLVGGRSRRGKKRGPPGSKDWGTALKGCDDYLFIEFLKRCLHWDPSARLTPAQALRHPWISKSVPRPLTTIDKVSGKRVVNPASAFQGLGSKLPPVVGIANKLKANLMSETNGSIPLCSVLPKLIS

CLK2 = CLK2 (Mus musculus, UniProt O35491); test: radiometric protein kinase assay
Experimental: as §1, §2, §3, §4

CLK3 = CLK3 (Mus musculus, UniProt O35492); test: radiometric protein kinase assay
Experimental: as §1, §2, §3, §4

CLK4 = CLK4 (Mus musculus, UniProt O35493); test: radiometric protein kinase assay
Experimental: as §1, §2, §3, §4

CLK1 [3] = tested on: CLK1; design: method as in PMID 21450467; conditions: cited from earlier work
DYRK1A [4] = tested on: DYRK1A; design: method as in PMID 21450467; conditions: cited from earlier work
CLK1 [5] = conditions: cited from earlier work
DYRK1A [6] = conditions: cited from earlier work
HCT116 = conditions: colorectal cancer cell line; cited from earlier work
DYRK1A [7] = tested on: DYRK1A; design: method as in PMID 28555643; conditions: 1 μM; cited from earlier work
CLK1 [8] = tested on: CLK1; design: method as in PMID 28555643; conditions: 1 μM; cited from earlier work
CLK1 [9] = tested on: CLK1; design: method as in PMID 28561591; conditions: cited from earlier work
DYRK1A [10] = tested on: DYRK1A; design: method as in PMID 28561591; conditions: cited from earlier work

CLK2, sequence (O35491 whole entry): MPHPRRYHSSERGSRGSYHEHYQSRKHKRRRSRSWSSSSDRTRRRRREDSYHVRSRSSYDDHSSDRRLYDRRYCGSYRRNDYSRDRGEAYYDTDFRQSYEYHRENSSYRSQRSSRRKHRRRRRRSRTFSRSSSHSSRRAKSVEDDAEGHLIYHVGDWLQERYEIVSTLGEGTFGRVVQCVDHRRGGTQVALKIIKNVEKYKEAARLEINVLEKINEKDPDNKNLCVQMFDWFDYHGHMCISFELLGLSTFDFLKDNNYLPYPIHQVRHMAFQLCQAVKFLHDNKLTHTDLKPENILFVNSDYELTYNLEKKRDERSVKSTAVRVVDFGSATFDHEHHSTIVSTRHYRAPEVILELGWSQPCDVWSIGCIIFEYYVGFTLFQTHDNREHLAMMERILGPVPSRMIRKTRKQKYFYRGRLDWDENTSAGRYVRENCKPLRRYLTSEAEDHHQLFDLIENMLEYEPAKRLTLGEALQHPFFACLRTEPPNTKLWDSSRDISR
CLK1 (Mus musculus, UniProt P22518), sequence (P22518 whole entry): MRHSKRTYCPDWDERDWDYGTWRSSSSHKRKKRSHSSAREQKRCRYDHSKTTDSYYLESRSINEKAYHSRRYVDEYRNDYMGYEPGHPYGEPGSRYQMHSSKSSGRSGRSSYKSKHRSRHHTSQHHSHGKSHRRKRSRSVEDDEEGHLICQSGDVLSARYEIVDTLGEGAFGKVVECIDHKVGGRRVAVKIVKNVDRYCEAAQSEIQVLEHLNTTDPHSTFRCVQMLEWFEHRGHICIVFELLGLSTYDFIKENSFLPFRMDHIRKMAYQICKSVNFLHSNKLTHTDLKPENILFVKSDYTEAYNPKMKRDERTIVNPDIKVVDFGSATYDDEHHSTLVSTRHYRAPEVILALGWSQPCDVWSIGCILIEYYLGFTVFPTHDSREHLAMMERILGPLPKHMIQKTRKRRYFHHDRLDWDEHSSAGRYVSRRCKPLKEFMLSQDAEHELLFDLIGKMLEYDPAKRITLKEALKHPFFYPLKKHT
DYRK1B, sequence (Q9Y463 whole entry): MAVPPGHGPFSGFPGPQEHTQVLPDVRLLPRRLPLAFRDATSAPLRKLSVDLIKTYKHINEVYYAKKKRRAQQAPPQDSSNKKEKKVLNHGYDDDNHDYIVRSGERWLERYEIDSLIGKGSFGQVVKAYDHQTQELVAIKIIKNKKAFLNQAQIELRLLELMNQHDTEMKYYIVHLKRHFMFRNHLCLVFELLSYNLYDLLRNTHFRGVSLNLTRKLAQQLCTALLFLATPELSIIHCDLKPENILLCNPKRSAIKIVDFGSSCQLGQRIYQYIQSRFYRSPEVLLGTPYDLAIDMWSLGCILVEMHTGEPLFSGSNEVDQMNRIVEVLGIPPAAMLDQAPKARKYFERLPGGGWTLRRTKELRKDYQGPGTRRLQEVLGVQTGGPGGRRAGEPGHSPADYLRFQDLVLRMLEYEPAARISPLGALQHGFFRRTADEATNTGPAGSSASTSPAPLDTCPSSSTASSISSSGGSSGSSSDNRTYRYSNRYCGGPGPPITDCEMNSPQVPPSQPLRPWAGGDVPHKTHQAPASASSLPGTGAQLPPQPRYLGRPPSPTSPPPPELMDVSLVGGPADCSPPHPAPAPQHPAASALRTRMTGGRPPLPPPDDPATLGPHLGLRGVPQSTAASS
CDK9/cyclin T, sequence (P50750 whole entry): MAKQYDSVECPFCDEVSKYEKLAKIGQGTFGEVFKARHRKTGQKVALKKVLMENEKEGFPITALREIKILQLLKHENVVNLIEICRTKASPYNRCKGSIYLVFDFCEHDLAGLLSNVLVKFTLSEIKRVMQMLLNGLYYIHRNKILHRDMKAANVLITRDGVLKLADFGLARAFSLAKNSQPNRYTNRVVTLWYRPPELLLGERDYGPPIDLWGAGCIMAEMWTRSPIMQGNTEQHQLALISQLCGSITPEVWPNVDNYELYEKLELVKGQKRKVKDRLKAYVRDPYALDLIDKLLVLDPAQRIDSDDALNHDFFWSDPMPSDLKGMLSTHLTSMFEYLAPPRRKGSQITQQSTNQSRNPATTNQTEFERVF
CDK9/cyclin T, sequence (O60563 whole entry partner): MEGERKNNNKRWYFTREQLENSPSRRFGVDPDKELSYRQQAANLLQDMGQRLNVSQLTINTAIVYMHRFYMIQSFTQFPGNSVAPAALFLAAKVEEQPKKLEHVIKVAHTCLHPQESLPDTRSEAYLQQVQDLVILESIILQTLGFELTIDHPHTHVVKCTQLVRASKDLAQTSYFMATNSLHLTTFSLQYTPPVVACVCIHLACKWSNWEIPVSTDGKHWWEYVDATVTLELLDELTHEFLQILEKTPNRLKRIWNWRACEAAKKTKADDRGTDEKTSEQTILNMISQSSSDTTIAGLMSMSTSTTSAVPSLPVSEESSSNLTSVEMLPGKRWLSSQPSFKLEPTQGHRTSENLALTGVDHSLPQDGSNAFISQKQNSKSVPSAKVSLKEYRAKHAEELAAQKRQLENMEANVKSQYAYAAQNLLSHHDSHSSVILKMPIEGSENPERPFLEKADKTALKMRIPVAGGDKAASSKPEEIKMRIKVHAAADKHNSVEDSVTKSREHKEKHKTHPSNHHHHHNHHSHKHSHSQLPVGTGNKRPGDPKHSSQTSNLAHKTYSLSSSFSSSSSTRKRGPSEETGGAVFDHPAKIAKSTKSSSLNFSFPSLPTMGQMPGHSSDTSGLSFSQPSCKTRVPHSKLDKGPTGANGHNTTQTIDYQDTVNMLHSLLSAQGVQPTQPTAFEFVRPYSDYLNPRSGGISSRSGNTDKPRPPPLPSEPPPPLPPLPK
T2 sequence (Q00535 whole entry): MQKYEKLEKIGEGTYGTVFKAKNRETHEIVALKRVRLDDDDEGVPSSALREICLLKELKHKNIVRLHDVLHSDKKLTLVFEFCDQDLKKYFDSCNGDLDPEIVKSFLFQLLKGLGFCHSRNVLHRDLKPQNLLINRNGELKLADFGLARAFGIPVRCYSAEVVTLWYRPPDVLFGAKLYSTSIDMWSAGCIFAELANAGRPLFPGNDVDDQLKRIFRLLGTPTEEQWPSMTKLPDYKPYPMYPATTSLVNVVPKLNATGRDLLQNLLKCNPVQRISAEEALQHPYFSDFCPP
T2 sequence (Q15078 99-307 partner limits assumed): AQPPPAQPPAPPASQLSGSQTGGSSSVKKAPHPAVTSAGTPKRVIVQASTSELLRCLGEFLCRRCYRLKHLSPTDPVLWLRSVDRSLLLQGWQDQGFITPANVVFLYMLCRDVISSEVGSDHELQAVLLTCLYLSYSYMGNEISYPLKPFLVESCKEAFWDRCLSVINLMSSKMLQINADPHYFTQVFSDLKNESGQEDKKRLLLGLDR
CLK4, sequence (O35493 whole entry): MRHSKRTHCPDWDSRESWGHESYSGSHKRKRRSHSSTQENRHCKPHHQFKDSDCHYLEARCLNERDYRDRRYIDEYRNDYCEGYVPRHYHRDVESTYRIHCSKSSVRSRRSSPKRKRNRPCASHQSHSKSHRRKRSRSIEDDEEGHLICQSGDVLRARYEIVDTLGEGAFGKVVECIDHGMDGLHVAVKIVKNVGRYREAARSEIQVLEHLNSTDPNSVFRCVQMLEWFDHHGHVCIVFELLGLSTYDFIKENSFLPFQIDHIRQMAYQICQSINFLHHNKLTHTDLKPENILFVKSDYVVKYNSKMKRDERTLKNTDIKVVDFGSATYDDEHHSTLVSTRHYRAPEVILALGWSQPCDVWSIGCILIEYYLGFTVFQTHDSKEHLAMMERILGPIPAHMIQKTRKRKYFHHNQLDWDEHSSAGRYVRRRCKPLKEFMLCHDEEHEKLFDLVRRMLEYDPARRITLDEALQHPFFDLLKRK
CLK3, sequence (O35492 whole entry): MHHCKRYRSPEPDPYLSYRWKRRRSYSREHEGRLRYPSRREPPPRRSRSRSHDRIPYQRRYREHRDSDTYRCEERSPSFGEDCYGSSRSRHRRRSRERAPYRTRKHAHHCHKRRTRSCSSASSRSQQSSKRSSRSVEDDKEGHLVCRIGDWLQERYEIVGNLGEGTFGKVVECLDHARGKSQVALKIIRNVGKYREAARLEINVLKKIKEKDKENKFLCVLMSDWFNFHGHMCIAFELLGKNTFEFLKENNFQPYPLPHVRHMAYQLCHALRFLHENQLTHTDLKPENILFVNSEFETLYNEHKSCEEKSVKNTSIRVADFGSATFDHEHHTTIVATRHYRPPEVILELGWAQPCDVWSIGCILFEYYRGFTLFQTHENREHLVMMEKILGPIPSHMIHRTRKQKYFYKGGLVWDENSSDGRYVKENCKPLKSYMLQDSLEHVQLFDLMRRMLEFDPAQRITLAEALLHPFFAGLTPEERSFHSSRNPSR

CCc1[nH]c2c3c(ccc2c1-c1ccccc1)CNC3=O (as salt: sodium) [8l, 2-Ethyl-3-phenyl-6,7-dihydropyrrolo[3,4-g]indol-8(1H)-one]
melting point: 165 to 170 °C

O=C1NCc2c(Br)cc3c(-c4ccccc4)c[nH]c3c21 (as salt: sodium) [12a, 5-Bromo-3-phenyl-6,7-dihydropyrrolo[3,4-g]indol-8(1H)-one]
melting point: 226 to 227 °C

CN1Cc2ccc3c(-c4ccccc4)c[nH]c3c2C1=O (as salt: sodium) [12d, 7-Methyl-3-phenyl-6,7-dihydropyrrolo[3,4-g]indol-8(1H)-one]
melting point: 265 to 267 °C

O=C1NCc2ccc3c(-c4ccccc4Cl)c[nH]c3c21 [8b, 3-(2-Chlorophenyl)-6,7-dihydropyrrolo[3,4-g]indol-8(1H)-one]
IC50 (CDK1/cyclin B): > 10 µM | IC50 (CDK2/cyclin A): > 10 µM | IC50 (CDK5/p25): > 10 µM | IC50 (CK1δ/ε): > 10 µM | IC50 (DYRK1A [1]): 1.1 µM | IC50 (GSK-3): > 10 µM | melting point: 234 to 235 °C | IC50 (CDK9/cyclin T): > 10 µM | IC50 (CLK1 [2]): 0.14 µM

COc1cccc(-c2c[nH]c3c4c(ccc23)CNC4=O)c1 [8f, 3-(3-Methoxyphenyl)-6,7-dihydropyrrolo[3,4-g]indol-8(1H)-one]
IC50 (CDK1/cyclin B): > 10 µM | IC50 (CDK2/cyclin A): > 10 µM | IC50 (CDK5/p25): > 10 µM | IC50 (CK1δ/ε): > 10 µM | IC50 (DYRK1A [1]): 3.8 µM | IC50 (DYRK1B): 1.9 µM | IC50 (DYRK2): 2.1 µM | IC50 (DYRK3): 5.4 µM | IC50 (GSK-3): > 10 µM | melting point: 207 to 208 °C | IC50 (CDK9/cyclin T): > 10 µM | IC50 (CLK1 [2]): 0.11 µM | IC50 (CLK2): 0.32 µM | IC50 (CLK3): 2.8 µM | IC50 (CLK4): 0.11 µM

O=C1NCc2ccc3c(-c4cccc([N+](=O)[O-])c4)c[nH]c3c21 [8j, 3-(3-Nitrophenyl)-6,7-dihydropyrrolo[3,4-g]indol-8(1H)-one]
IC50 (CDK1/cyclin B): > 10 µM | IC50 (CDK2/cyclin A): > 10 µM | IC50 (CDK5/p25): > 10 µM | IC50 (CK1δ/ε): > 10 µM | IC50 (DYRK1A [1]): > 10 µM | IC50 (DYRK1B): 1.5 µM | IC50 (DYRK2): 4.9 µM | IC50 (DYRK3): 1.9 µM | IC50 (GSK-3): > 10 µM | melting point: 237 to 238 °C (dec.) | IC50 (CDK9/cyclin T): > 10 µM | IC50 (CLK1 [2]): 0.038 µM | IC50 (CLK2): 0.37 µM | IC50 (CLK3): 8.5 µM | IC50 (CLK4): 0.061 µM

Cn1cc(-c2ccccc2)c2ccc3c(c21)C(=O)NC3 [15a, 1-Methyl-3-phenyl-6,7-dihydropyrrolo[3,4-g]indol-8(1H)-one]
IC50 (CDK1/cyclin B): > 10 µM | IC50 (CDK2/cyclin A): > 10 µM | IC50 (CDK5/p25): > 10 µM | IC50 (CK1δ/ε): > 10 µM | IC50 (DYRK1A [1]): > 10 µM | IC50 (DYRK1B): > 10 µM | IC50 (DYRK2): > 10 µM | IC50 (DYRK3): > 10 µM | IC50 (GSK-3): > 10 µM | melting point: 255 to 256 °C | IC50 (CDK9/cyclin T): > 10 µM | IC50 (CLK1 [2]): 0.19 µM | IC50 (CLK2): 1.1 µM | IC50 (CLK3): > 10 µM | IC50 (CLK4): 0.16 µM

CCn1cc(-c2ccccc2)c2ccc3c(c21)C(=O)NC3 [15b, 1-Ethyl-3-phenyl-6,7-dihydropyrrolo[3,4-g]indol-8(1H)-one]
IC50 (CDK1/cyclin B): > 10 µM | IC50 (CDK2/cyclin A): > 10 µM | IC50 (CDK5/p25): > 10 µM | IC50 (CK1δ/ε): > 10 µM | IC50 (DYRK1A [1]): 3.9 µM | IC50 (GSK-3): > 10 µM | melting point: 198 to 200 °C | IC50 (CDK9/cyclin T): > 10 µM | IC50 (CLK1 [2]): 0.38 µM

CCOC(=O)Cn1cc(-c2ccccc2)c2ccc3c(c21)C(=O)NC3 [15d, Ethyl 2-(8-oxo-3-phenyl-7,8-dihydropyrrolo[3,4-g]indol-1(6H)-yl)acetate]
IC50 (CDK1/cyclin B): > 10 µM | IC50 (CDK2/cyclin A): > 10 µM | IC50 (CDK5/p25): > 10 µM | IC50 (CK1δ/ε): > 10 µM | IC50 (DYRK1A [1]): > 10 µM | IC50 (GSK-3): > 10 µM | melting point: 226 to 227 °C | IC50 (CDK9/cyclin T): > 10 µM | IC50 (CLK1 [2]): > 10 µM

O=C1NCc2c(-c3ccccc3F)cc3c(-c4ccccc4)c[nH]c3c21 [17b, 5-(2-Fluorophenyl)-3-phenyl-6,7-dihydropyrrolo[3,4-g]indol-8(1H)-one]
IC50 (CDK1/cyclin B): > 10 µM | IC50 (CDK2/cyclin A): > 10 µM | IC50 (CDK5/p25): > 10 µM | IC50 (CK1δ/ε): > 10 µM | IC50 (DYRK1A [1]): > 10 µM | IC50 (DYRK1B): > 10 µM | IC50 (DYRK2): > 10 µM | IC50 (DYRK3): > 10 µM | IC50 (GSK-3): > 10 µM | melting point: 136 to 139 °C | IC50 (CDK9/cyclin T): > 10 µM | IC50 (CLK1 [2]): 5.8 µM | IC50 (CLK2): 4.1 µM | IC50 (CLK3): > 10 µM | IC50 (CLK4): 0.91 µM

Cc1nc(CNc2ncnc3ccc(-c4ccc5c(c4)OCO5)cc23)cs1 [NCGC00185963]
IC50 (CLK1 [3]): 0.096 µM | IC50 (DYRK1A [4]): 0.206 µM

CN1CCN(C(=O)C(C)(C)c2ccc(C(=O)Nc3cn4cc(-c5ccncc5)ccc4n3)cc2)CC1 [T3]
IC50 (CLK1 [5]): 0.00067 µM | IC50 (DYRK1A [6]): 0.26 µM | GI50 (HCT116): 0.13 µM

c1cc(-c2ccc3[nH]ncc3c2)ccn1 [TG693]
inhibition of DYRK1A activity (DYRK1A [7]): 84% | inhibition of CLK1 activity (CLK1 [8]): 93%

COc1ccc2sc(C(=O)N(C)Cc3cccc(F)c3)cc2c1 [compound 4]
IC50 (CLK1 [9]): 0.007 µM | IC50 (DYRK1A [10]): 0.34 µM
